target: T1, GST-Met 248 PDE 4a (purified GST fusion protein of the human recombinant phosphodiesterase IVa (met-248)) (Homo sapiens, UniProt P27815); assay: SPA Based PDE Activity Assay (hydrolysis of cAMP to AMP); assay type: biochemical; settings: 100 nM cAMP; baculovirus/Sf-9 expressed enzyme; ten point titration
T1 construct: phosphodiesterase IVa (met-248); made in house; host or cells: Sf-9 insect cells (baculovirus)
Method: SPA Based PDE Activity Assay Protocol
Compounds which inhibit the hydrolysis of cAMP to AMP by the type-IV cAMP-specific phosphodiesterases were screened in 96-well plate format as follows:
In a 96 well-plate at 30° C. was added the test compound (dissolved in 2 μl DMSO), […] of substrate buffer containing [2,8-^3 H] adenosine 3',5'-cyclic phosphate (cAMP, 100 nM to 50 μM), 10 mM MgCl2, 1 mM EDTA, 50 mM Tris, pH 7.5. The reaction was initiated by the addition of […] of human recombinant PDE-IV (the amount was controlled so that ~10% product was formed in 10 min.). The reaction was stopped after 10 min. by the addition of 1 mg of PDE-SPA beads (Amersham). The product AMP generated was quantified on a Microbeta 96-well plate counter. The signal in the absence of enzyme was defined as the background. 100% activity was defined as the signal detected in the presence of enzyme and DMSO with the background subtracted. Percentage of inhibition was calculated accordingly. IC50 value was approximated with a non-linear regression fit using the standard 4-parameter/multiple binding sites equation from a ten point titration.
IC50 values shown in Table 7 were determined with 100 nM cAMP using the purified GST fusion protein of the human recombinant phosphodiesterase IVa (met-248) produced from a baculovirus/Sf-9 expression system.

T1 sequence (P27815 248-886 limits assumed): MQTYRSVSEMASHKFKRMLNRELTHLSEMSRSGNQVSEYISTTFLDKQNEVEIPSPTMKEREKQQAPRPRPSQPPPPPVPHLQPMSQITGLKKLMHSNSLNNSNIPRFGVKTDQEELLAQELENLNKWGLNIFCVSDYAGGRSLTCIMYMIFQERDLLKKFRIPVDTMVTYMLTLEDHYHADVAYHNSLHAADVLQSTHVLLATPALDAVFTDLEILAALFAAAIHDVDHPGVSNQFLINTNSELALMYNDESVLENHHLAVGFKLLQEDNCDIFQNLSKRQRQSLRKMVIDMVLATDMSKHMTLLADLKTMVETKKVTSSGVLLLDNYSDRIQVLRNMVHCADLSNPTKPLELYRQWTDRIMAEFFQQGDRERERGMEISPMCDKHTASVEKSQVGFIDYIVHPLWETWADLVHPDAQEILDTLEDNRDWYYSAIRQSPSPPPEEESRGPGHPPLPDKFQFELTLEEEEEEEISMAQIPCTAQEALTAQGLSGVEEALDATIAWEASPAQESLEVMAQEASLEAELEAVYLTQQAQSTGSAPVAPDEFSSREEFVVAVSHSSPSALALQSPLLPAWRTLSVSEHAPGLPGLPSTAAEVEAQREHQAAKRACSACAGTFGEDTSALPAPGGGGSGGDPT

Compound	IC50 [nM]
CC(C)(Nc1ccc(C(Cc2cc[n+]([O-])cc2)c2ccc(OC(F)F)c(OC(F)F)c2)cn1)c1ccccc1 (racemic) [Example 11, 4-{2-[3,4-Bis(difluoromethoxy)phenyl]-2-[6-(1-methyl-1-phenylethylamino)3-pyridyl]ethyl}pyridine-N-oxide]	1.63
CN(Cc1ccccc1)c1ccc(C(Cc2ccncc2)c2ccc(OC(F)F)c(OC(F)F)c2)cn1 (racemic) [Example 54, 4-{2-[3,4-BIS(DIFLUOROMETHOXY)PHENYL]-2-[6-(N-METHYL-N-BENZYLAMINO)3-PYRIDYL]ETHYL}PYRIDINE]	2.84
COc1ccc(N(C)c2ccc(C(Cc3cc[n+]([O-])cc3)c3ccc(OC(F)F)c(OC(F)F)c3)cn2)cc1 (racemic) [Example 69, 4-{2-[3,4-Bis(difluoromethoxy)phenyl]-2-[6-(N-methyl-N-4-methoxyphenylamino)3-pyridyl]ethyl}pyridine-N-oxide]	3.1

Now those with a lower IC50, led by results:

IC50 [nM]	Compound
0.84	O=C(c1ccc(F)cc1)N(C(=O)c1ccc(F)cc1)c1ccc(C(Cc2cc[n+]([O-])cc2)c2ccc(OC(F)F)c(OC(F)F)c2)cn1 (single isomer, unassigned; enantiomer-2) [Example 99, (ENANTIOMER-2)-4-{2-[3,4-BIS(DIFLUOROMETHOXY)PHENYL]-2-{6-[N,N-DI(4-FLUOROBENZAMIDE)]3-PYRIDYL}ETHYL}PYRIDINE-N-OXIDE]
0.75	FC(F)Oc1ccc(C(Cc2ccncc2)c2ccc(NCc3ccccc3)nc2)cc1OC(F)F (racemic) [Example 1, 4-{2-[3,4-Bis(difluoromethoxy)phenyl]-2-[6-(benzylamino)3-pyridyl]ethyl}pyridine]

Reference: patent US6200993A, “Heterosubstituted pyridine derivatives as PDE4 inhibitors” (Merck Frosst Canada & Co., priority 2000, dated 2001)
